Measured values from PubChem BioAssay AID256 (DTP/NCI, 2004).
“And” between values parts separate entries of the source, which are not always exact repeats. Identical values can stand only once. Inconclusive results and toxic doses are left out. The calls were made as follows: active = survival T/C of 150% or more; inactive = T/C below 125% in these data.

Tested on: CD2F1 mice, L1210 leukemia ip, survival T/C
Assay: NCI In Vivo Anticancer Drug Screen. Data for tumor model L1210 Leukemia (intraperitoneal) in CD2F1 (CDF1) mice
Conditions: higher = longer survival
Procedure, shortened: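 Mice carrying a transplanted tumor received test compound or vehicle alone. The value is the measurement in the treated group divided by that in the vehicle-treated control group.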

[1] = endpoint: mean survival time, dose: 100.0 mg/kg/injection, schedule: Q01DX009 (ip), vehicle: saline with Tween-80
[2] = endpoint: mean survival time, dose: 100.0 mg/kg/injection, schedule: Q04DX003 (ip), vehicle: saline with Tween-80
[3] = endpoint: mean survival time, dose: 200.0 mg/kg/injection, schedule: Q01DX009 (ip), vehicle: saline with Tween-80
[4] = endpoint: mean survival time, dose: 200.0 mg/kg/injection, schedule: Q04DX003 (ip), vehicle: saline with Tween-80
[5] = endpoint: mean survival time, dose: 400.0 mg/kg/injection, schedule: Q04DX003 (ip), vehicle: saline with Tween-80
[6] = endpoint: mean survival time, dose: 25.0 mg/kg/injection, schedule: Q04DX003 (ip), vehicle: saline with Tween-80
[7] = endpoint: mean survival time, dose: 50.0 mg/kg/injection, schedule: Q04DX003 (ip), vehicle: saline with Tween-80
[8] = endpoint: mean survival time, dose: 50.0 mg/kg/injection, schedule: Q01DX009 (ip), vehicle: saline with Tween-80
[9] = endpoint: mean survival time, dose: 6.25 mg/kg/injection, schedule: Q01DX009 (ip), vehicle: saline with Tween-80
[10] = endpoint: mean survival time, dose: 12.5 mg/kg/injection, schedule: Q01DX009 (ip), vehicle: saline with Tween-80
[11] = endpoint: mean survival time, dose: 25.0 mg/kg/injection, schedule: Q01DX009 (ip), vehicle: saline with Tween-80
[12] = endpoint: mean survival time, dose: 100.0 mg/kg/injection, schedule: Q04DX002 (ip), vehicle: saline with Tween-80
[13] = endpoint: mean survival time, dose: 100.0 mg/kg/injection, schedule: Q01DX001 (ip), vehicle: saline with Tween-80
[14] = endpoint: mean survival time, dose: 200.0 mg/kg/injection, schedule: Q01DX001 (ip), vehicle: saline with Tween-80
[15] = endpoint: mean survival time, dose: 400.0 mg/kg/injection, schedule: Q01DX001 (ip), vehicle: saline with Tween-80

Measured: T/C

CCOC(=O)Nc1cc(NCCc2ccccc2)c2[nH]cnc2n1
inactive: endpoint: mean survival time, dose: 100.0 mg/kg/injection, schedule: Q01DX001 (ip), vehicle: Klucel (hydroxypropylcellulose) (HPC) 90 % of control | endpoint: mean survival time, dose: 200.0 mg/kg/injection, schedule: Q01DX001 (ip), vehicle: Klucel (hydroxypropylcellulose) (HPC) 87 % of control | endpoint: mean survival time, dose: 400.0 mg/kg/injection, schedule: Q01DX001 (ip), vehicle: Klucel (hydroxypropylcellulose) (HPC) 95 % of control

O=[N+]([O-])c1ccc(CSc2ncnc3c2ncn3C2OC(COP(=O)(O)O)C(O)C2O)cc1 (centres undefined)
inactive: endpoint: mean survival time, dose: 12.5 mg/kg/injection, schedule: Q01DX005 (ip), vehicle: water 100 % of control | endpoint: mean survival time, dose: 25.0 mg/kg/injection, schedule: Q01DX005 (ip), vehicle: water 96 % of control | endpoint: mean survival time, dose: 50.0 mg/kg/injection, schedule: Q01DX005 (ip), vehicle: water 104 % of control | endpoint: mean survival time, dose: 100.0 mg/kg/injection, schedule: Q01DX005 (ip), vehicle: water 105 % of control | endpoint: mean survival time, dose: 200.0 mg/kg/injection, schedule: Q01DX005 (ip), vehicle: water 111 % of control

CC1(C)C2CCC1(CS(=O)(=O)O)C(=O)C2.[Ag] (centres undefined)
inactive: endpoint: mean survival time, dose: 100.0 mg/kg/injection, schedule: Q04DX003 (ip), vehicle: acetone 96 % of control

CC1=NN(c2ccc(S(=O)(=O)O)cc2)C(=O)C1
inactive: [1] 93 % of control | [2] 96 % of control | [3] 87 % of control | [4] 104 % of control | [5] 98 % of control

CCCCC(CCCC)CS(=O)[O-].[C-]#[O+].[C-]#[O+].[Fe+6].[c-]1[c-][c-][cH-][c-]1
inactive: endpoint: mean survival time, dose: 25.0 mg/kg/injection, schedule: Q04DX002 (ip), vehicle: saline 102 % of control | endpoint: mean survival time, dose: 50.0 mg/kg/injection, schedule: Q04DX002 (ip), vehicle: saline 87 % of control | endpoint: mean survival time, dose: 100.0 mg/kg/injection, schedule: Q04DX002 (ip), vehicle: saline 106 % of control

[Cl][Pt][Cl].c1ccc([AsH](CC[AsH](c2ccccc2)c2ccccc2)c2ccccc2)cc1
inactive: [6] 94 % of control | [7] 88 % of control | [2] 96 % of control

NC(=S)N/N=C/c1cccc(CC(O)(C(F)(F)F)C(F)(F)F)n1
inactive: endpoint: mean survival time, dose: 12.5 mg/kg/injection, schedule: Q04DX003 (ip), vehicle: saline with Tween-80 97 % of control | [6] 94 % of control | [7] 96 % of control

O=C(O)C1=CCCc2ccc(Br)cc21
inactive: endpoint: median survival time, dose: 25.0 mg/kg/injection, schedule: Q04DX003 (ip), vehicle: saline with Tween-80 100 % of control | endpoint: median survival time, dose: 50.0 mg/kg/injection, schedule: Q04DX003 (ip), vehicle: saline with Tween-80 100 % of control | endpoint: median survival time, dose: 100.0 mg/kg/injection, schedule: Q04DX003 (ip), vehicle: saline with Tween-80 88 % of control | endpoint: median survival time, dose: 200.0 mg/kg/injection, schedule: Q04DX003 (ip), vehicle: saline with Tween-80 88 % of control

COC(=O)C(CCl)NC(C)=O (centres undefined)
inactive: [1] 96 % of control and 101 % of control | [3] 96 % of control and 102 % of control | endpoint: mean survival time, dose: 400.0 mg/kg/injection, schedule: Q01DX009 (ip), vehicle: saline with Tween-80 108 % of control and 98 % of control

O=Cc1cc(=O)[nH]c2ccccc12
inactive: [2] 96 % of control | [4] 98 % of control | [5] 100 % of control

COc1ccc2ccccc2c1/C=N/N1CCCCC1
inactive: [2] 102 % of control | [4] 102 % of control | [5] 96 % of control

Oc1c(C(c2ccccc2)N2CCOCC2)ccc2ccccc12 (centres undefined)
inactive: [8] 94 % of control | [1] 102 % of control | [2] 95 % of control | [3] 98 % of control | [4] 103 % of control

O=C(O)C1(O)C[C@@H](O)C(O)[C@H](O)C1 (some centres undefined)
inactive: endpoint: mean survival time, dose: 100.0 mg/kg/injection, schedule: Q01DX001 (ip), vehicle: saline 102 % of control | endpoint: mean survival time, dose: 100.0 mg/kg/injection, schedule: Q04DX003 (ip), vehicle: saline 108 % of control | endpoint: mean survival time, dose: 200.0 mg/kg/injection, schedule: Q01DX001 (ip), vehicle: saline 96 % of control | endpoint: mean survival time, dose: 200.0 mg/kg/injection, schedule: Q04DX003 (ip), vehicle: saline 98 % of control | endpoint: mean survival time, dose: 400.0 mg/kg/injection, schedule: Q01DX001 (ip), vehicle: saline 100 % of control | endpoint: mean survival time, dose: 400.0 mg/kg/injection, schedule: Q04DX003 (ip), vehicle: saline 102 % of control

CN1C2CCC1C(CCl)C(O)C2 (centres undefined)
inactive: endpoint: mean survival time, dose: 50.0 mg/kg/injection, schedule: Q01DX009 (ip), vehicle: saline 97 % of control | endpoint: mean survival time, dose: 100.0 mg/kg/injection, schedule: Q01DX009 (ip), vehicle: saline 104 % of control | endpoint: mean survival time, dose: 200.0 mg/kg/injection, schedule: Q01DX009 (ip), vehicle: saline 101 % of control

O=C1C(Br)=C(Br)C(=O)C1(Br)Br
inactive: [9] 97 % of control | [10] 103 % of control | [11] 92 % of control

COC(=O)C(Cc1cnc[nH]1)NC(=O)c1ccccc1 (centres undefined)
inactive: [2] 103 % of control | [4] 104 % of control | [5] 97 % of control

O=C(COc1ccc(Cl)c(Cl)c1)Nc1ccc(Cl)cc1
inactive: [9] 98 % of control | [10] 98 % of control | [11] 98 % of control

COc1ccc(NC(=O)Nc2ccc(OC)cc2OC)cc1
inactive: [12] 86 % of control | endpoint: mean survival time, dose: 200.0 mg/kg/injection, schedule: Q04DX002 (ip), vehicle: saline with Tween-80 90 % of control | endpoint: mean survival time, dose: 400.0 mg/kg/injection, schedule: Q04DX002 (ip), vehicle: saline with Tween-80 86 % of control

OC1C=CC2CC1C2 (centres undefined)
inactive: [2] 95 % of control | [4] 98 % of control | [5] 98 % of control

CC(=O)C(C)OS(C)(=O)=O (centres undefined)
inactive: [6] 108 % of control | [7] 108 % of control | [2] 109 % of control | [4] 120 % of control

Cc1ccc(Cl)cc1NC(=O)c1c(Br)c(Br)c(Br)c(Br)c1C(=O)O
inactive: [13] 106 % of control | [14] 110 % of control | [15] 108 % of control

COc1ccccc1NC(=O)Oc1ccccc1-c1ccccc1
inactive: [11] 93 % of control | endpoint: mean survival time, dose: 25.0 mg/kg/injection, schedule: Q04DX002 (ip), vehicle: saline with Tween-80 98 % of control | [8] 93 % of control | endpoint: mean survival time, dose: 50.0 mg/kg/injection, schedule: Q04DX002 (ip), vehicle: saline with Tween-80 110 % of control | [1] 93 % of control | [12] 87 % of control and 104 % of control

C1=CC(c2ccccc2)C(c2ccccc2)C(c2ccccc2)=C1 (centres undefined)
inactive: [13] 95 % of control | [14] 87 % of control | [15] 87 % of control

O=C1C2CC3C1C1(Cl)C(Cl)C4(Cl)C2C3C1(Cl)C4(Cl)Cl (centres undefined)
inactive: endpoint: mean survival time, dose: 9.5 mg/kg/injection, schedule: Q01DX001 (ip), vehicle: other 98 % of control | endpoint: mean survival time, dose: 19.0 mg/kg/injection, schedule: Q01DX001 (ip), vehicle: other 104 % of control | endpoint: mean survival time, dose: 38.0 mg/kg/injection, schedule: Q01DX001 (ip), vehicle: other 103 % of control | endpoint: mean survival time, dose: 75.0 mg/kg/injection, schedule: Q01DX001 (ip), vehicle: other 104 % of control

CCOC/C=C/C(C)(C)C
inactive: [8] 102 % of control | [1] 102 % of control | [3] 97 % of control

CC(=O)c1cccc(C(=O)O)c1
inactive: [13] 103 % of control | [14] 101 % of control | [15] 103 % of control

Nc1ccc(OCc2nc(N)nc(N)c2-c2ccc(Cl)cc2)cc1
inactive: endpoint: mean survival time, dose: 50.0 mg/kg/injection, schedule: Q01DX001 (ip), vehicle: saline with Tween-80 95 % of control | [13] 101 % of control | [14] 93 % of control
